Results published in patent publication US8680152B2, “Cathepsin inhibitors for the treatment of bone cancer and bone cancer pain” (Virobay, Inc., priority 2011, dated 2014).
Like-named read-outs stand apart in the source and are kept apart here.

Assays:
human osteoclasts = assay: Inhibition of bone resorption in vitro (human osteoclasts on bovine bone slices); type: cell-based; conditions: CTX/TRACP5b, FIG. 7
Experimental: FIG. 7. Inhibition of Bone Resorption In Vitro. […] Compounds of the present invention were added to cultured human differentiated bone marrow-derived osteoclasts cultured on bovine bone slices allowing them to resorb bone. Tartrate-resistant acid phosphatase 5b activity (TRACP 5b) was measured in the culture medium as an index of the number of osteoclasts formed in each well, and C-terminal cross-linked telopeptides of type 1 collagen (CTX) was measured in the culture medium to quantitate bone resorption. […] The irreversible protease inhibitor E64 as well as the reversible specific cathepsin K protease inhibitor odanacatib were included as assay controls.
Compound A was assessed in an in vitro assay for its efficacy in blocking resorption activity of human osteoclasts in vitro. Bone marrow-derived human osteoclast precursor cells were cultured on bovine bone slices for 7 days in conditions that allowed osteoclast differentiation, and allowing them to differentiate into bone-resorbing osteoclasts. After completion of osteoclast differentiation at day 7, the culture medium was removed and new culture medium for assessing osteoclast activity was added. Test compounds including Compound A was added to the cultures at this stage on day 7. Cultures were then allowed to continue for an additional 3 days allowing them to resorb bone. Concentrations of Compound assessed were 1, 3, 10, 30, 100, 300, and 1000 nM in 8 replicates. Tartrate-resistant acid phosphatase 5b activity (TRACP 5b) was measured from the culture medium collected on day 7 indicating the number of mature osteoclasts formed in each well before adding compounds. C-terminal cross-linked telopeptides of type 1 collagen (CTX) were measured form the culture medium collected at day 10 to quantitate bone resorption during days 7-10. […] The study was performed in […] with each containing a baseline group including vehicle, a control group with a reference compound E64, and 7 concentrations of the test compound to determine an EC50 for inhibition of resorption activity.

Human cathepsin S = Human cathepsin S (Homo sapiens, UniProt P25774); assay: Cathepsin S assay; type: biochemical
Experimental: (§1) Solutions of test compounds in varying concentrations were prepared in 10 μL of dimethyl sulfoxide (DMSO) and then diluted into assay buffer (40 μL, comprising: MES, 50 mM (pH 6.5); EDTA, 2.5 mM; and NaCl, 100 mM); β-mercaptoethanol, 2.5 mM; and BSA, 0.00%. Human cathepsin S (0.05 pMoles in 25 μL of assay buffer) was added to the dilutions. The assay solutions were mixed for 5-10 seconds on a shaker plate, covered and incubated for 30 min at room temperature. Z-Val-Val-Arg-AMC (4 nMoles in 25 μL of assay buffer containing 10% DMSO) was added to the assay solutions and hydrolysis was followed spectrophotometrically (at λ 460 nm) for 5 min. Apparent inhibition constants (Ki) were calculated from the enzyme progress curves using standard mathematical models.

cathepsin B = cathepsin B (Homo sapiens, UniProt P07858); assay: Cathepsin B assay; type: biochemical
Experimental: Solutions of test compounds in varying concentrations were prepared in 101 μL of dimethyl sulfoxide (DMSO) and then diluted into assay buffer (40 μL, comprising: N,N-bis(2-hydroxyethyl)-2-aminoethanesulfonic acid (BES), 50 mM (pH 6); polyoxyethylenesorbitan monolaurate, 0.05%; and dithiothreitol (DTT), 2.5 mM). Human cathepsin B (0.025 pMoles in 25 μL of assay buffer) was added to the dilutions. The assay solutions were mixed for 5-10 seconds on a shaker plate, covered and incubated for 30 min at room temperature. Z-FR-AMC (20 nMoles in 25 μL of assay buffer) was added to the assay solutions and hydrolysis was followed spectrophotometrically at (λ 460 nm) for 5 min. Apparent inhibition constants (Ki) were calculated from the enzyme progress curves using standard mathematical models.

cathepsin L = cathepsin L (Homo sapiens, UniProt P07711); assay: Cathepsin L assay; type: biochemical; conditions: for inhibition at 0.1 µM: single data point of 100 nM
Experimental: (§2) Solutions of test compounds in varying concentrations were prepared in 10 μL of dimethyl sulfoxide (DMSO) and then diluted into assay buffer (40 μL, comprising: MES, 50 mM (pH 5.5); EDTA, 2.5 mM; and DTT, 2.5 mM). Human cathepsin L (0.05 pMoles in 25 μL of assay buffer) was added to the dilutions. The assay solutions were mixed for 5-10 seconds on a shaker plate, covered and incubated for 30 min at room temperature. Z-Phe-Arg-AMC (1 nMoles in 25 μL of assay buffer) was added to the assay solutions and hydrolysis was followed spectrophotometrically at (λ 460 nm) for 5 min. Apparent inhibition constants (Ki) were calculated from the enzyme progress curves using standard mathematical models.

Human Cathepsin V = Human Cathepsin V (Homo sapiens, UniProt O60911); assay: Cathepsin V assay; type: biochemical; conditions: for inhibition at 0.1 µM: single data point of 100 nM
Experimental: The assays were performed similarly to those described above. Human Cathepsin V: The buffer used to assay this enzyme consisted of: 50 mM MES (pH 6.5), 2.5 mM DTT, 2.5 mM EDTA, 100 mM NaCl, 0.01% BSA and 10% DMSO. Recombinant human cathepsin V was supplied at 2.0 nM. Substrate, Z-Phe-Arg-AMC, was supplied at 25 μM. Apparent inhibition constants (Ki) were calculated from the enzyme progress curves using standard mathematical models.

[1] = tested on: multiple human cathepsin enzymes; assay: Cathepsin inhibitory profile on multiple cathepsin enzymes; type: biochemical
Description: FIG. 1. […] Methods are similar to those set forth in the Biological Examples.

[2] = molecular target: T1, Cathepsin K (huRab), humanized rabbit cathepsin K enzyme (Oryctolagus cuniculus, UniProt P43236); assay: Cathepsin K (huRab) assay; type: biochemical
T1 sequence (P43236 1-329 Y175D/V274L): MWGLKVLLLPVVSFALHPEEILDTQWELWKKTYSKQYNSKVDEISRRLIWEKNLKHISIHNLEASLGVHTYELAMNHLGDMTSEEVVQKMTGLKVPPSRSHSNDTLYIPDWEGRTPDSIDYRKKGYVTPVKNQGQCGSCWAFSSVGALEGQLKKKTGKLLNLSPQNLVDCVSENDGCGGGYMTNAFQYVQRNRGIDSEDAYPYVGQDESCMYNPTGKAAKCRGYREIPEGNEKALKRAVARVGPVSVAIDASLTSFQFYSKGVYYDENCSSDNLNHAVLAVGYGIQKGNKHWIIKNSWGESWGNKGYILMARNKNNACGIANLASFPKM
Experimental: FIG. 5. Cathepsin inhibitory profiles for Compound A, Compound B, and Compound C. All human enzymes with the exception of CatK HuRab. This is a humanized rabbit cathepsin K enzyme where the key amino acids in the active site of rabbit cathepsin K have been converted to match the amino acids found in the active site of human cathepsin K. The remainder of the enzyme is rabbit. Methods are as set forth in the Examples.
as §2, with “K (0.0906” for “L (0.05”, “(4” for “(1”

Human cathepsin F = molecular target: T2, Human cathepsin F (Homo sapiens, UniProt Q9UBX1); assay: Cathepsin F assay; type: biochemical
T2 sequence (Q9UBX1 271-484): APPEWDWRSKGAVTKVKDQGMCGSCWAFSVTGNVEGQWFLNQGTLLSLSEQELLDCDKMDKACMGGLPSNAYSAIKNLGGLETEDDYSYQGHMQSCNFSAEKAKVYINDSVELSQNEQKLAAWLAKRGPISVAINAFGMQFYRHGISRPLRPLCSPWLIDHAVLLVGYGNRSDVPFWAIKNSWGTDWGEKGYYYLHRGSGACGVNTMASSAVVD
Experimental: as §1, with “DTT,” for “β-mercaptoethanol,”, “0.01%.” for “0.00%.”, “F (0.1” for “S (0.05”, “Z-Phe-Arg-AMC (2” for “Z-Val-Val-Arg-AMC (4”, “Apparent inhibition constants (Ki) were calculated from the enzyme progress curves using standard mathematical models.” left out

[3] = tested at one concentration, 100 nM

Chain of Human cathepsin S (P25774 115-331): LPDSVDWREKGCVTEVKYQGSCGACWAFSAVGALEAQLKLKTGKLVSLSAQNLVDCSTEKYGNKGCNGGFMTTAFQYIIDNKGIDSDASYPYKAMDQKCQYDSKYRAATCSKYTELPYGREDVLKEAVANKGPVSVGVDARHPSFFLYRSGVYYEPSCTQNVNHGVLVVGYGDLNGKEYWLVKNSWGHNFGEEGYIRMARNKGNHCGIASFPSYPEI
Chain of Human Cathepsin V (O60911 114-334): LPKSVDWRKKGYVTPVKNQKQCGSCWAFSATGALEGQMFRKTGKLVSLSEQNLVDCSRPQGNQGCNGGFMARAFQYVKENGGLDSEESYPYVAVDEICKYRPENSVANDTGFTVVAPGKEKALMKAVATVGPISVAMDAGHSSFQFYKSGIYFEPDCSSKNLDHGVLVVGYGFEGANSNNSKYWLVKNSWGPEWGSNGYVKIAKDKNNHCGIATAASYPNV
Chain of cathepsin L (P07711 114-333): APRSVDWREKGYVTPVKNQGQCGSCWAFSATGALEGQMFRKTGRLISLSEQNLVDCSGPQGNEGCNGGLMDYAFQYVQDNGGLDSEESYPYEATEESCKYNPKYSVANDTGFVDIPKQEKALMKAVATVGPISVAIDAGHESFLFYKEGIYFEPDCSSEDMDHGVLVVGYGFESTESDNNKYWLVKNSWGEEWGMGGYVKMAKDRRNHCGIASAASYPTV

Q: Which melting point does the source give for `CC[C@H](NC(=O)[C@H](CCS(C)(=O)=O)N[C@@H](c1ccc(F)cc1)C(F)(F)F)C(=O)C(=O)NC1CC1` [Example 1, N-cyclopropyl-3S-{4-methanesulfonyl-2S-[2,2,2-trifluoro-1S-(4-fluoro-phenyl)-ethylamino]-butyrylamino}-2-oxo-pentanamide] here?
A: Its melting point is 152.5 to 153.5 °C.

Q: For `CC[C@H](NC(=O)[C@H](CS(=O)(=O)c1cccc(S(C)(=O)=O)c1)N[C@@H](c1ccc(F)cc1)C(F)(F)F)C(=O)C(=O)NC1CC1` [Compound B, (S)—N-Cyclopropyl-3-((R)-3-((3-(methylsulfonyl)phenyl)sulfonyl)-2-(((S)-2,2,2-trifluoro-1-(4-fluorophenyl)ethyl)amino)propanamido)-2-oxopentanamide], which “inhibition of bone resorption in vitro” value (human osteoclasts) is on record?
A: The value was “inhibit bone resorption in vitro, with similar potency to Compound A”.

Q: For `CC[C@H](NC(=O)[C@H](CC(F)(F)CC1CC1)N[C@@H](c1ccc(F)cc1)C(F)(F)F)C(=O)C(=O)NC1CC1` [Compound E, (S)-5-cyclopropyl-N—((S)-1-(cyclopropylamino)-1,2-dioxopentan-3-yl)-4,4-difluoro-2-(((S)-2,2,2-trifluoro-1-(4-fluorophenyl)ethyl)amino)pentanamide], which IC50 (Human cathepsin S) is on record?
A: Its IC50 is 0.000332 µM.

Q: What about the IC50 (cathepsin B) of the same molecule?
A: The IC50 was under 0.1 µM.

Q: And the inhibition at 0.1 µM (cathepsin B; one concentration, 100 nM)?
A: Its inhibition at 0.1 µM is at least 98%.

Q: And the inhibition at 0.1 µM (cathepsin L)?
A: The inhibition at 0.1 µM was at least 98%.

Q: What about the IC50 (cathepsin L; [3]) of the same molecule?
A: Its IC50 is under 0.1 µM.

Q: And the inhibition at 0.1 µM (Human Cathepsin V)?
A: The inhibition at 0.1 µM was at least 98%.

Q: And the IC50 (Human Cathepsin V; [3])?
A: The IC50 was under 0.1 µM.

Q: What about the “inhibition of bone resorption in vitro” value (human osteoclasts) of the same molecule?
A: The value was “inhibit bone resorption in vitro, with similar potency to Compound A”.

Q: For `CC[C@H](NC(=O)[C@H](CC(F)(F)CC1CC1)NCC(F)(F)Oc1ccc(F)cc1)C(=O)C(=O)NC1CC1` [Compound D, (S)-5-cyclopropyl-N-((S)-1-(cyclopropylamino)-1,2-dioxopentan-3-yl)-2-(2,2-difluoro-2-(4-fluorophenoxy)ethylamino)-4,4-difluoropentanamide], which IC50 (Human cathepsin S) is on record?
A: Its IC50 is 0.000267 µM.

Q: What about the IC50 (cathepsin B) of the same molecule?
A: The IC50 was 0.023 µM.

Q: And the inhibition at 0.1 µM (cathepsin L)?
A: The inhibition at 0.1 µM was 75%.

Q: What about the IC50 (cathepsin L; [3]) of the same molecule?
A: Its IC50 is under 0.1 µM.

Q: And the inhibition at 0.1 µM (Human Cathepsin V)?
A: Its inhibition at 0.1 µM is 63%.

Q: And the IC50 (Human Cathepsin V; [3])?
A: The IC50 was under 0.1 µM.

Q: What about the “inhibition of bone resorption in vitro” value (human osteoclasts) of the same molecule?
A: The value was “inhibit bone resorption in vitro, with similar potency to Compound A”.

Q: What about the “cathepsin inhibitory profile on multiple cathepsin enzymes” value [1] of the same molecule?
A: Its value is “very favorable cathepsin inhibitory profile”.

Q: Which IC50 (Human cathepsin S) does the source give for `CC[C@H](NC(=O)[C@H](CS(=O)(=O)Cc1cccnc1)N[C@@H](c1ccc(F)cc1)C(F)(F)F)C(=O)C(=O)NC1CC1` [Compound F, (S)—N-cyclopropyl-2-oxo-3-((R)-3-((pyridin-3-ylmethyl)sulfonyl)-2-(((S)-2,2,2-trifluoro-1-(4-fluorophenyl)ethyl)amino)propanamido)pentanamide] here?
A: Its IC50 is 0.00034 µM.

Q: What about the IC50 (cathepsin B) of the same molecule?
A: The IC50 was 0.0025 µM.

Q: What about the IC50 (cathepsin L) of the same molecule?
A: The IC50 was 0.0003 µM.

Q: And the IC50 (Human Cathepsin V)?
A: Its IC50 is under 0.00025 µM.

Q: What about the IC50 [2] of the same molecule?
A: The IC50 was 0.028 µM.

Q: What about the IC50 (Human cathepsin F) of the same molecule?
A: The IC50 was 0.074 µM.

Q: And the “inhibition of bone resorption in vitro” value (human osteoclasts)?
A: Its value is “inhibit bone resorption in vitro, with similar potency to Compound A”.
